Tested on: fecal bile acids
Test: Phase 1 ascending multiple oral doses of LUM001 in healthy adults: fecal bile acid analysis
Format: in vivo, human
Settings: 28 days
Procedure: This Phase 1 study was a randomized, double-blind, placebo-controlled study of ascending multiple oral doses of LUM001 in healthy, adult subjects. This study was conducted at a single center. There were 13 LUM001 dosing panels: 10, 20, 60, 100, and 20 mg every morning (qAM) (2) (i.e., the regimen was tested a second time in the study), 5 mg every evening (qPM), 0.5, 1, 2.5, 5, 2.5 (2), 5 (2), and 0.5 to 5 mg qAM dose titration. Most of the dosing panels included subjects treated with matching placebo. No subject participated in more than 1 dosing panel. […]
On Day 1 of the Treatment Period, subjects who qualified for enrollment were randomized in the order in which they were admitted to the research facility. […] The safety and tolerability of LUM001 were evaluated by physical examination, ascertainment of adverse signs and symptoms, and clinical laboratory studies. […]
Fecal samples were collected for all panels except the dose-titration panel, 2.5 (2) and 5 mg (2), on Days 9 through 14 and 23 through 28 (data shown in FIG. 6; *p<0.05; **p<0.01 compared to placebo). Twenty-four hour FBA excretions were quantified by Pharmacia for Days 9 through 14 and 23 through 28. […] The weight of each 24-hour fecal collection was recorded on the CRFs. […]
An aliquot for each 24-hour fecal sample collected on Days 23 through 28 was combined, homogenized, and analyzed for bile acid species concentrations by ANAPHARM. […]

CCCCC1(CCCC)CS(=O)(=O)c2ccc(N(C)C)cc2[C@@H](c2ccc(OCc3ccc(C[N+]45CCN(CC4)CC5)cc3)cc2)[C@H]1O [LUM001]
effect on fecal bile acids: significant increase
